Earlier results, collected in patent publication US6764693B1, “Free radical quenching composition and a method to increase intracellular and/or extracellular antioxidants” (Amaox, Ltd., priority 1992, dated 2004).

Legend:
[1] = separate experimental protocols
[2] = oxidants from activated leukocytes
[3] = antioxidant placed in liposomes
T lymphocytes = details: activated leukocytes combined with T lymphocytes
[4] = pH of 1.0
[5] = system: HIV in U1 cell line (promonocytes); details: increasing thiol concentration in culture medium of U1 cells
[6] = free GSH, intravenous

Compound | mortality [1] | effect on lipid peroxidation of liposomes [2] | effect on HIV [5] | further results
CC(C)(C)/[N+]([O-])=C/c1ccccc1 [PBN, phenyltertylnitrone] | 42% | – | – | –
Cc1c(C)c2c(c(C)c1O)CCC(C)(CCCC(C)CCCC(C)CCCC(C)C)O2 (stereo not drawn) [vitamin E, alpha-tocopherol] | 46% | conferred protection against lipid peroxidation | – | effect on lipid peroxidation in liposomes exposed to uv [3]: inhibited
catalase | – | inhibited peroxidation | – | suppression of lymphocytic function (T lymphocytes): no suppression of lymphocytic function
beta carotene [beta-carotene] | – | conferred protection against lipid peroxidation | – | effect on lipid peroxidation in liposomes exposed to uv [3]: inhibited
N[C@@H](CCC(=O)N[C@@H](CS)C(=O)NCC(=O)O)C(=O)O [glutathione] | 100% | – | suppression of viral assembly, HIV reverse transcriptase production and viral replication | rate constant K2 against the hydroxyl radical [4]: 8.8×10^9; t½ [6]: approximately 1.6 minutes
CC(=O)N[C@@H](CS)C(=O)O [NAC, N-acetyl-cysteine] | – | – | suppression of viral assembly, HIV reverse transcriptase production and viral replication | rate constant K2 against the hydroxyl radical [4]: 1.36×10^10
glutathione ester [GSE] | – | – | suppression of viral assembly, HIV reverse transcriptase production and viral replication | –
